In one series the test system is Helicobacter pylori. Kind of series: MIC, broth dilution method, Helicobacter pylori. The class given is cell-based. The conditions noted are these: for MIC: Helicobacter pylori. The source says: (§1) Antibacterial activity can be determined by several standard methods well known by those skilled in the art, including disc diffusions methods, broth dilution minimal inhibitory concentration (MIC) methods, etc., including the detailed method outlined below and as defined by the National Committee of Clinical Laboratory Standards in the United States.
(§2) MIC, Broth Dilution Method
(§3) Cultures of bacteria are initially brought up from the freezer stocks onto chocolate agar plates by streaking a loop-full, then incubated for 18 hours at 35-37° C. in a 5% CO2 incubator.
(§4) Five to 10 colonies are picked from the chocolate agar plate for subculture to Brain-Heart Infusion (BHI) broth or Mueller Hinton broth or BHI containing 4% serum and incubated as described.
(§5) Evaluate the optical density of the organisms in the wells of a 96 well microtiter plate with and without the test compound. The optical density of the organisms in the presence of an active compound will be less than the optical density of the same organism untreated. The activity of the compounds is described as either negative or the lowest concentration inhibiting growth. The results are depicted in Table III, where +/− represents the least activity and ++++ represents the greatest activity. In Table IV, the results are depicted where MIC represents the lowest concentration of antibiotic that inhibits bacterial growth.

The next series concerns Campylobacter jejuni. Kind of series: MIC, broth dilution method, Campylobacter jejuni. The class given is cell-based. The conditions noted are these: for MIC: Campylobacter jejuni.
Excerpt: as §1, §2, §3, §4, §5
For orientation: In broth dilution the organism is exposed to a series of concentrations in liquid medium.

Where [1] appears, read: Table IV, MIC, lowest concentration that inhibits bacterial growth, read-out: Antibacterial Activity (micrograms/ml) Helicobacter pylori.
Where [2] appears, read: Table IV, MIC, lowest concentration that inhibits bacterial growth, read-out: Antibacterial Activity (micrograms/ml) Campylobacter jejuni.
[3] abbreviates: Table V, read-out: MIC (μg/mL) H. pylori.
Where [4] appears, read: Table V, read-out: MIC (μg/mL) C. jejuni.

Values after ≈ are worked out from the molar mass of the structure shown. Read-outs that look alike come from different tables or passages of the source. Some results are limits rather than exact numbers.

Regarding `CCOC(=O)C1CCc2ccc(OC)cc2NC1=O` (racemic) [Example 3, 3(R,S)-Ethoxycarbonyl-8-methoxy-2,3,4,5-tetrahydro-1H-1-benzazepine-2-one], the melting point (as a rule, the temperature, or range, at which the solid turns liquid) was 89 to 91 °C. Further, the MIC with Helicobacter pylori (setting [1]) lay in the range of 50 to 100 µg/mL (≈ 190 to 380 µM). The MIC in the series on Campylobacter jejuni (setting [2]) is 100 µg/mL (≈ 380 µM).
In the same order, the values of `CCN1C(=O)C(C(=O)O)CCc2ccc(OC)cc21` (racemic) [Example 5, 3(R,S)-Carboxyl-1-ethyl-8-methoxy-2,3,4,5-tetrahydro-1H-1-benzazepine-2-one] are 120 to 121 °C, 100 µg/mL (≈ 380 µM) and above 200 µg/mL.
In the same order, the values of `COc1ccc2c(c1)NC(=O)C(C(=O)OC(C)(C)C)CC2` (racemic) [Example 11, 3(R,S)-tert-Butoxycarbonyl-8-methoxy-2,3,4,5-tetrahydro-1 H-1-benzazepine-2-one] are 145 to 147 °C, 50 µg/mL (≈ 172 µM) and 100 to 200 µg/mL (≈ 343 to 686 µM).
In the same order, the values of `CCN1C(=O)C(C(=O)OC(C)(C)C)CCc2ccc(OC)cc21` (racemic) [Example 12, 3(R,S)-tert-Butoxycarbonyl-1-ethyl-8-methoxy-2,3,4,5-tetrahydro-1H-1-benzazepine-2-one] are 132 to 133 °C, 50 µg/mL (≈ 157 µM) and above 200 µg/mL.
Turning to `CCN1C(=O)C(C(=O)OC(C)(C)C)CCc2cc(Br)c(OC)cc21` (racemic) [Example 13, 7-Bromo-3(R,S)-tert-butoxycarbonyl-1-ethyl-8-methoxy-2,3,4,5-tetrahydro-1H-1-benzazepine-2-one], the melting point lay within 131 to 132 °C. Further, in the series on Helicobacter pylori (setting [1]), the MIC is 6.25 to 12.5 µg/mL (≈ 15.7 to 31.4 µM). Also, the MIC with Campylobacter jejuni (setting [2]) was above 200 µg/mL.
Regarding `CCN1C(=O)C(C(=O)OC(C)(C)C)CCc2cc(N3CCNCC3)c(OC)cc21` (racemic) [Example 18, 3(R,S)-tert-Butoxycarbonyl-1-ethyl-8-methoxy-7-(piperazin-1-yl)-2,3,4,5-tetrahydro-1H-1-benzazepine-2-one], the melting point is 165 °C (dec.). For the same compound, in the series with Helicobacter pylori (setting [1]), the MIC came to 50 µg/mL (≈ 124 µM). Also, in the series on Campylobacter jejuni (setting [2]), the MIC is above 200 µg/mL.
In the same order, the values of `COc1ccc2c(c1)N(C(=O)OC(C)(C)C)C(=O)C(C(=O)OC(C)(C)C)CC2` (racemic) [Example 23, 1-tert-Butoxycarbonyl-3(R,S)-tert-butoxycarbonyl-8-methoxy-2,3,4,5-tetrahydro-1H -benzazepine-2-one] are 91 to 92 °C, 50 µg/mL (≈ 128 µM) and 200 µg/mL (≈ 511 µM).
As for `CCN1C(=O)C(C(=O)OC(C)(C)C)CCc2ccc(O)cc21` (racemic) [Example 178, 3(R,S)-tert-Butoxycarbonyl-1-ethyl-8-hydroxy-2,3,4,5-tetrahydro-1H-1-benzazepine-2-one], the melting point was 154 to 156 °C. The MIC in the series with Helicobacter pylori (setting [3]) was 16 µg/mL (≈ 52.4 µM). In addition, the MIC with Campylobacter jejuni (setting [4]) was above 200 µg/mL.
With `COc1cc2c(cc1[N+](=O)[O-])CCC(C(=O)OC(C)(C)C)C(=O)N2C(=O)OC(C)(C)C` (racemic) [Example 195, 1,3(R,S)-Di(tert-butoxycarbonyl)-8-methoxy-7-nitro-2,3,4,5-tetrahydro-1H-1-benzazepine-2-one], the melting point was 142 to 144 °C (dec.). Besides, the MIC in the series with Helicobacter pylori (setting [3]) worked out at 4 µg/mL (≈ 9.16 µM). In addition, the MIC in the series on Campylobacter jejuni (setting [4]) was 60 µg/mL (≈ 137 µM).
In the case of `CC(C)(C)OC(=O)C1CCc2cc([N+](=O)[O-])c(O)cc2NC1=O` (racemic) [Example 220, 3(R,S)-tert-Butoxycarbonyl-8-hydroxyl-7-nitro-2,3,4,5-tetrahydro-1H-1-benzazepine-2-one], the melting point was 189 to 191 °C (dec.). In addition, the MIC with Helicobacter pylori (setting [3]) was determined as 8 µg/mL (≈ 24.8 µM). Also, the MIC in the series with Campylobacter jejuni (setting [4]) is 250 µg/mL (≈ 776 µM).
As for `COc1ccc2c(c1)NC(=O)CCC2` [Example 2, 8-Methoxy-2,3,4,5-tetrahydro-1H-1-benzazepine-2-one], the melting point fell in the range of 105 to 106 °C. For the same compound, the MIC with Helicobacter pylori (setting [1]) was above 200 µg/mL. Also, the MIC in the series on Campylobacter jejuni (setting [2]) was determined as 50 µg/mL (≈ 261 µM).
`CCN1C(=O)CCCc2cc(Br)c(OC)cc21` [Example 9, 7-Bromo-1-ethyl-8-methoxy-2,3,4,5-tetrahydro-1H-1-benzazepine-2-one] showed a melting point of 133 to 135 °C. The MIC in the series on Helicobacter pylori (setting [1]) was 100 µg/mL (≈ 335 µM). Besides, the MIC in the series on Campylobacter jejuni (setting [2]) was above 200 µg/mL.
In turn, `COc1cc2c(cc1Br)CCCC(=O)N2` [Example 24, 7-Bromo-8-methoxy-2,3,4,5-tetrahydro-1H-1-benzazepine-2-one] came in with a melting point of 180 to 182 °C. The MIC with Helicobacter pylori (setting [1]) came to 100 µg/mL (≈ 370 µM). The MIC in the series on Campylobacter jejuni (setting [2]) was above 200 µg/mL.
Turning to `O=C1CCCc2cc([N+](=O)[O-])c(O)cc2N1` [Example 175, 8-Hydroxy-7-nitro-2,3,4,5-tetrahydro-1 H-1-benzazepine-2-one], the melting point is 239 to 240 °C. For the same compound, the MIC in the series on Helicobacter pylori (setting [1]) amounted to 1 µg/mL (≈ 4.5 µM). In addition, the MIC in the series on Helicobacter pylori (setting [3]) amounted to 1 µg/mL (≈ 4.5 µM). In the series with Campylobacter jejuni (setting [2]), the MIC was 30 µg/mL (≈ 135 µM). In the series with Campylobacter jejuni (setting [4]), the MIC was determined as 30 µg/mL (≈ 135 µM).
For `O=C1CCCc2ccc([N+](=O)[O-])cc2N1` [Example 181, 8-Nitro-2,3,4,5-tetrahydro-1H-1-benzazepine-2-one], the MIC in the series on Helicobacter pylori (setting [3]) was determined as 250 µg/mL (≈ 1210 µM); in the series on Campylobacter jejuni (setting [4]), 125 µg/mL (≈ 606 µM).
As for `CCN1C(=O)CCCc2ccc([N+](=O)[O-])cc21` [Example 182, 8-Nitro-1-ethyl-2,3,4,5-tetrahydro-1H-1-benzazepine-2-one], the MIC with Helicobacter pylori (setting [3]) came to 16 µg/mL (≈ 68.3 µM); with Campylobacter jejuni (setting [4]), 8 µg/mL (≈ 34.2 µM).
In the same order, the values of `COc1ccc2c(c1)CCCC(=O)N2` [Example 185, 7-Methoxy-2,3,4,5-tetrahydro-1H-1-benzazepine-2-one] are 125 µg/mL (≈ 654 µM) and 32 µg/mL (≈ 167 µM).
In the same order, the values of `COc1cccc2c1CCCC(=O)N2` [Example 186, 6-Methoxy-2,3,4,5-tetrahydro-1 H-1-benzazepine-2-one] are 64 µg/mL (≈ 335 µM) and above 250 µg/mL.
As to `O=C1CCCc2ccccc2N1` [Example 187, 2,3,4,5-tetrahydro-1H-1-benzazepine-2-one], the MIC with Helicobacter pylori (setting [3]) is 64 µg/mL (≈ 397 µM); in the series on Campylobacter jejuni (setting [4]), above 250 µg/mL.
In the same order, the values of `O=C1CCCc2c(O)cccc2N1` [Example 188, 6-Hydroxy-2,3,4,5-tetrahydro-1H-1-benzazepine-2-one] are 32 µg/mL (≈ 181 µM) and above 250 µg/mL.
In the same order, the values of `O=C1CCCc2cc(O)ccc2N1` [Example 189, 7-Hydroxy-2,3,4,5-tetrahydro-H-1-benzazepine-2-one] are 125 µg/mL (≈ 705 µM) and above 250 µg/mL.
On to `CCN1C(=O)CCCc2ccc(N)cc21` [Example 190, 8-Amino-1-ethyl-2,3,4,5-tetrahydro-1H-1-benzazepine-2-one], for which the MIC in the series on Helicobacter pylori (setting [3]) was determined as 64 µg/mL (≈ 313 µM); in the series on Campylobacter jejuni (setting [4]), 250 µg/mL (≈ 1220 µM).
For `CCN1C(=O)CCCc2ccc(Br)cc21` [Example 191, 8-Bromo-1-ethyl-2,3,4,5-tetrahydro-1H-1-benzazepine-2-one], the MIC worked out at 16 µg/mL (≈ 59.7 µM) in the series with Helicobacter pylori (setting [3]) and 8 µg/mL (≈ 29.8 µM) in the series with Campylobacter jejuni (setting [4]).
With `COc1ccc2c(c1)NC(=O)C(C(=O)NO)CC2` (stereo not drawn) [Example 197, 3-Hydoxyaminocarbonyl-8-methoxy-2,3,4,5-tetrahydro-1H-1-benzazepine-2-one], the MIC in the series with Helicobacter pylori (setting [3]) was 125 µg/mL (≈ 499 µM); in the series on Campylobacter jejuni (setting [4]) it was above 250 µg/mL.
`COc1cc2c(cc1[N+](=O)[O-])CCC(C(=O)OC(C)(C)C)C(=O)N2CCOC1CCCCO1` [Example 224, 3(R,S)-tert-Butoxycarbonyl-8-methoxy-7-nitro-1-[2-(tetrahydro-2H-pyran-2-yloxy)]ethyl-2,3,4,5-tetrahydro-1H-1-benzazepine-2-one]: in the series with Helicobacter pylori (Table V), the “MIC (μg/mL) H. pylori” value amounted to 60 µg/mL (≈ 129 µM). In addition, the “MIC (μg/mL) C. jejuni” value in the series on Campylobacter jejuni (Table V) is listed as >250, μg/mL.

(Values after US20050234041A1, “Substituted 1-benzazepines and derivatives thereof” (priority 2001, published 2005).)
